According to patent US20160009772A1, “CELL PENETRATING PEPTIDES WHICH BIND IRF5” (priority 2012, published 2016):
Where two headings read alike, the source gives them in different places.

Assays:
IRF5 (222-467, S430D) = biological target: T1, IRF5 (222-467, S430D) (Homo sapiens, UniProt Q13568, S440D); test: FRET IRF5 dimerization inhibition assay (TR-FRET), S430D construct; assay type: binding
T1 construct: 250 nM His tag IRF5(222-467, S430D); 100 nM biotin tag IRF5(222-467, S430D)
Experimental: (§1) The following steps may then be performed: • 1) Prepare 100 nM of biotin-IRF5(S430D) (0.96 mg/ml or 32 uM,) and 250 nM His-IRF5(S430D) (1.51 mg/ml or 51 uM,) in AB1 • 2) Add 50 ul/well of solution in (1) into peptide solutions in 96-well PP plates as described above and incubate at RT for 20 min. • 3) Prepare 10 nM Eu-labeled streptavidin and 80 nM APC-labeled anti-His Ab in AB2 (AB1 w/o DTT) containing 5% DMSO and add 17 ul/well into solutions in (4). • 4) Transfer 30 ul/well into 384-well PP plate (Matrix) and incubate at 40 C for 1 day.
(§2) To test the ability of compounds to inhibit IRF5 dimerization a time-resolved fluorescence resonance energy transfer (TR-FRET) was developed. Binding of recombinant His tagged IRF5 (222-467 constructs) to recombinant biotin tagged IRF5 was measured by FRET between Europium labeled anti-GST antibody and Stretavidin-conjugated Allophycocyanin. […] The IRF5 S430 and WT (222-467) constructs were then used to test the ability of compounds to inhibit dimerization. […] Fifty microliters per well of 100 nM biotin tag IRF5(222-467, S430D) and 250 nM His tag IRF5(222-467, S430D) in Assay Buffer (50 mM Tris-HCl, pH 7.4, 100 mM NaCl, 1 mM DTT and 0.2 mg/ml BSA) were added. The samples were incubated at room temperature for 20 min. Seventeen microliters per well of detection solution containing 10 nM europium (Eu) conjugated streptavidin and 80 nM allophycocyanin (APC) conjugated anti-His antibody (Columbia Biosciences) in Assay Buffer (without DTT) were added. The samples were incubated at room temperature for 60 min followed by overnight incubation at 40 C and 30 ul per well were transferred to 384-well polystyrene plates (Matrix, Thermal Scientific) in duplicates. Assay signals were monitored by reading excitation at 340 nm and emission fluorescence at 615 nm and 665 nm on an Envision reader. TR-FRET signals were calculated by the ratio of acceptor to donor signals after subtracting both blank and donor cross-talk values from acceptor signal (Huang, K S and Vassilev, L T, Methods Enzymol., 399, 717-728 (2005)). The data were processed in Excel XLfit and the IC50 values were calculated using a nonlinear curve-fitting algorithm (four parameter equation). The data represent an average of 3 independent experiments (each run in triplicates) and the reported errors represent standard deviation (s.d.).

Wild type IRF5 (222-467) = biological target: T2, Wild type IRF5 (222-467) (Homo sapiens, UniProt Q13568); test: FRET IRF5 dimerization inhibition assay (TR-FRET), WT construct; assay type: binding
T2 construct: S430D phosphomimetic construct of IRF5 (222-467) as well as WT (222-467)
T2 sequence (Q13568 232-477): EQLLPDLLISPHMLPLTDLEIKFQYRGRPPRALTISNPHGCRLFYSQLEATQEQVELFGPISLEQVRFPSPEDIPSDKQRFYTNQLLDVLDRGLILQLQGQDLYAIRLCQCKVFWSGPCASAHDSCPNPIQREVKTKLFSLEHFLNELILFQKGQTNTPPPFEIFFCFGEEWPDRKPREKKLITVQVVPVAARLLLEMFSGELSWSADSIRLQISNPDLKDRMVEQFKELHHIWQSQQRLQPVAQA
Experimental: as §1, §2

[1] = system: NFκB nuclear translocation in HeLa cells; test: NFκB translocation assay (TNFα mediated, high content imaging); assay type: cell-based; conditions: 50 μM peptide; TNFα induced NFkB translocation in HeLa cells
Experimental: The selectivity of the CPP's over NFκB was determined using a high content screening assay wherein TNFα mediated nuclear translocation of NFκB was determined by imaging.
HeLa cells were plated at 5000 cells/well in 96 well Perkin Elmer ViewPlates and incubated overnight at 37 C. Media was aspirated and compounds pre-diluted in 0.05% BSA Hanks/20 mM HEPES were added in duplicate at various concentrations for 30 minutes. Wells were stimulated with 20 μl of 150 ng/ml TNFα for 30 minutes at 37 C. Wells were aspirated and the cells were fixed with 3.7% formaldehyde solution for 15 minutes at room temperature. The fixative was removed and the plates were washed with PBS. The NFkB translocation assay, based upon detection of an antibody to p65 (Thermo-Fisher), was completed and read on the Perkin Elmer Operetta at 40×.

THP-1 cells = test: Cytotoxicity (cell titer glo) as headed in Table 3; assay type: cell-based, human; conditions: cytotoxicity defined as greater than 40% loss of cells
Experimental: THP-1 cells obtained from ATCC were seeded at 50 k cells/100 μl/well in a 96 well plate (Corning Cat#3340). Peptides were dissolved in DMSO at 10 mM as stock solution, then 1:10 in water at 1 mM, mix well. R848 (Enzo Cat#ALX-420-038-M005) was dissolved in DMSO (Sigma Cat#D2650) at 10 mM. […] R848 was added to the 96-well cell plate at a final concentration of 10 μM, and cells were incubated at 37° C. for 24 h. The supernatant was tested for IL6 by Alphalisa (Perkin Elmer AL233C) as per manufacturer's instructions. Viability of the cells was measured by cell titer glo (Promega).

[2] = Table 1, S430D phosphomimetic construct of IRF5 (222-467), average of 3 experiments ± s.d., read-out: S430D IC50
[3] = Table 1, WT IRF5 (222-467), average of 3 experiments ± s.d., read-out: WT IC50
[4] = Table 2, WT IRF5 (222-467), read-out: WT IC50

T1 sequence (Q13568 232-477 S440D): as the sequence (Q13568 232-477) above, with S209D counted along it

| Compound | IC50 (IRF5 (222-467, S430D); [2]) [µM] | IC50 (Wild type IRF5 (222-467); [3]) [µM] | NFkB selectivity (50 μM) [1] | Cytotoxicity in THP-1 cells at 10 μM (THP-1 cells) | IC50 (Wild type IRF5 (222-467); [4]) [µM] | also measured |
| --- | --- | --- | --- | --- | --- | --- |
| CSCC[C@H](NC(C)=O)C(=O)N[C@@H](C)C(=O)N[C@@H](CC(N)=O)C(=O)N[C@@H](CC(C)C)C(=O)NCC(=O)N[C@@H](Cc1ccc(O)cc1)C(=O)N[C@@H](Cc1c[nH]c2ccccc12)C(=O)N[C@@H](CC(C)C)C(=O)N[C@@H](CC(C)C)C(=O)N[C@@H](CC(C)C)C(=O)N[C@@H](CC(C)C)C(=O)N[C@@H](Cc1ccccc1)C(=O)N[C@H](C(=O)N[C@H](C(=O)N[C@@H](CCSC)C(=O)N[C@@H](Cc1c[nH]c2ccccc12)C(=O)N[C@H](C(=O)N[C@@H](CC(=O)O)C(=O)N[C@H](C(=O)NCC(=O)N[C@@H](CC(C)C)C(=O)N[C@@H](C)C(=O)N[C@@H](CCCCN)C(=O)N[C@@H](CCCCN)C(=O)N[C@@H](CCCNC(=N)N)C(=O)N1CCC[C@H]1C(=O)N[C@@H](CCCCN)C(=O)N1CCC[C@H]1C(N)=O)C(C)C)[C@@H](C)O)[C@@H](C)O)C(C)C [SEQ ID NO 4] | 26.4 ± 4.5 | 19.5 ± 4 | No inhibition | None | – | – |
| CSCC[C@H](NC(C)=O)C(=O)N[C@@H](C)C(=O)N[C@@H](CC(N)=O)C(=O)N[C@@H](CC(C)C)C(=O)NCC(=O)N[C@@H](Cc1ccc(O)cc1)C(=O)N[C@@H](Cc1c[nH]c2ccccc12)C(=O)N[C@@H](CC(C)C)C(=O)N[C@@H](C)C(=O)N[C@@H](CC(C)C)C(=O)N[C@@H](CC(C)C)C(=O)N[C@@H](Cc1ccccc1)C(=O)N[C@H](C(=O)N[C@H](C(=O)N[C@@H](CCSC)C(=O)N[C@@H](Cc1c[nH]c2ccccc12)C(=O)N[C@H](C(=O)N[C@@H](CC(=O)O)C(=O)N[C@H](C(=O)NCC(=O)N[C@@H](CC(C)C)C(=O)N[C@@H](Cc1ccccc1)C(=O)N[C@@H](CCCCN)C(=O)N[C@@H](CCCCN)C(=O)N[C@@H](CCCNC(=N)N)C(=O)N1CCC[C@H]1C(=O)N[C@@H](CCCCN)C(=O)N1CCC[C@H]1C(N)=O)C(C)C)[C@@H](C)O)[C@@H](C)O)C(C)C [SEQ ID NO 5] | 26.6 ± 5.4 | 22.4 ± 6.2 | No inhibition | None | – | – |
| CSCC[C@H](NC(C)=O)C(=O)N[C@@H](C)C(=O)N[C@@H](CC(N)=O)C(=O)N[C@@H](CC(C)C)C(=O)NCC(=O)N[C@@H](Cc1ccc(O)cc1)C(=O)N[C@@H](Cc1c[nH]c2ccccc12)C(=O)N[C@@H](CC(C)C)C(=O)N[C@@H](CC(C)C)C(=O)N[C@@H](C)C(=O)N[C@@H](CC(C)C)C(=O)N[C@@H](Cc1ccccc1)C(=O)N[C@H](C(=O)N[C@H](C(=O)N[C@@H](Cc1ccc(O)cc1)C(=O)N[C@@H](Cc1c[nH]c2ccccc12)C(=O)N[C@H](C(=O)N[C@@H](CC(=O)O)C(=O)N[C@@H](CC(C)C)C(=O)NCC(=O)N[C@@H](CC(C)C)C(=O)N[C@H](C(=O)N[C@@H](CCCCN)C(=O)N[C@@H](CCCCN)C(=O)N[C@@H](CCCNC(=N)N)C(=O)N1CCC[C@H]1C(=O)N[C@@H](CCCCN)C(=O)N1CCC[C@H]1C(N)=O)C(C)C)[C@@H](C)O)[C@@H](C)O)C(C)C [SEQ ID NO 6] | 15.4 ± 5.8 | 15.3 ± 4.8 | No inhibition | None | – | – |
| CSCC[C@H](NC(C)=O)C(=O)N[C@@H](C)C(=O)N[C@@H](CC(N)=O)C(=O)N[C@@H](CC(C)C)C(=O)NCC(=O)N[C@@H](Cc1ccc(O)cc1)C(=O)N[C@@H](Cc1c[nH]c2ccccc12)C(=O)N[C@@H](CC(C)C)C(=O)N[C@@H](Cc1ccc(O)cc1)C(=O)N[C@@H](C)C(=O)N[C@@H](CC(C)C)C(=O)N[C@@H](Cc1ccccc1)C(=O)N[C@@H](CC(C)C)C(=O)N[C@H](C(=O)N[C@@H](CCSC)C(=O)N[C@H](C(=O)N[C@H](C(=O)N[C@@H](CC(=O)O)C(=O)N[C@H](C(=O)NCC(=O)N[C@@H](CC(C)C)C(=O)N[C@@H](Cc1ccccc1)C(=O)N[C@@H](CCCCN)C(=O)N[C@@H](CCCCN)C(=O)N[C@@H](CCCNC(=N)N)C(=O)N1CCC[C@H]1C(=O)N[C@@H](CCCCN)C(=O)N1CCC[C@H]1C(N)=O)C(C)C)[C@@H](C)O)C(C)C)[C@@H](C)O [SEQ ID NO 7] | 34.2 ± 5.5 | 41.9 ± 6.4 | No inhibition | None | – | – |
| Ac-IRLQISNPDLKDLMVQWFKDGGPSSGAPPPS-NH2 [SEQ ID NO 9] | – | – | – | – | 1.4 | – |
| Ac-IRLQISNPYLKFIPLKRAIWLIK-NH2 [SEQ ID NO 13] | – | – | No inhibition | None | – | – |
| Ac-KDLMVQWFKDGGPSSGAPPPS-NH2 [SEQ ID NO 8] | – | – | – | – | 0.79 | IC50 (IRF5 (222-467, S430D); Table 2, S430D phosphomimetic construct of IRF5 (222-467), read-out: S430D IC50): 1.68 µM |
| Ac-MIILIISFPKHKDWKVILVK-NH2 [SEQ ID NO 14] | – | – | No inhibition | None | – | – |
| Ac-PFPPLPIGEEAPKDDMVRFFKDLHQYLNVV-NH2 [SEQ ID NO 10] | – | – | – | – | 0.35 | – |
| Ac-YLKFIPLKRAIWLIK-NH2 [SEQ ID NO 23, Ac-YLKFIPLKRAIWLIK-NH2, reference compound] | – | – | – | – | – | IC50 (IRF5 (222-467, S430D)): > 75 µM; affinity in FRET dimerization assay (IRF5 (222-467, S430D); S430D and WT IRF5 (222-467) constructs): does not display any affinity; IC50 (Wild type IRF5 (222-467)): > 75 µM |
